Measurements as given in ChEMBL document CHEMBL1287797, “Design and synthesis of harzialactone analogues: promising anticancer agents” (2010).

Columns and labels:
Format in all cases: functional
[1] = Anticancer activity against mouse P388D1 cells assessed as inhibition of cell growth at 40 ug/ml by MTT assay
HeLa [2] = test: Anticancer activity against human HeLa cells assessed as inhibition of cell growth at 80 ug/ml by MTT assay
HL-60 [3] = test: Anticancer activity against human HL60 cells assessed as inhibition of cell growth at 80 ug/ml by MTT assay
[4] = Anticancer activity against mouse P388D1 cells assessed as inhibition of cell growth at 60 ug/ml by MTT assay
[5] = Anticancer activity against mouse P388D1 cells assessed as inhibition of cell growth at 80 ug/ml by MTT assay
HeLa [6] = test: Anticancer activity against human HeLa cells assessed as inhibition of cell growth at 5 ug/ml by MTT assay
[7] = Anticancer activity against mouse P388D1 cells assessed as inhibition of cell growth at 5 ug/ml by MTT assay
HeLa [8] = test: Anticancer activity against human HeLa cells assessed as inhibition of cell growth at 100ug/ml by MTT assay
COLO 205 [9] = test: Anticancer activity against human COLO205 cells assessed as inhibition of cell growth at 10 ug/ml by MTT assay
COLO 205 [10] = test: Anticancer activity against human COLO205 cells assessed as inhibition of cell growth at 100ug/ml by MTT assay
ZR-75-1 [11] = test: Anticancer activity against human ZR-75-1 cells assessed as inhibition of cell growth at 5 ug/ml by MTT assay
COLO 205 [12] = test: Anticancer activity against human COLO205 cells assessed as inhibition of cell growth at 40 ug/ml by MTT assay
HL-60 [13] = test: Anticancer activity against human HL60 cells assessed as inhibition of cell growth at 60 ug/ml by MTT assay
HL-60 [14] = test: Anticancer activity against human HL60 cells assessed as inhibition of cell growth at 100ug/ml by MTT assay
HL-60 [15] = test: Anticancer activity against human HL60 cells assessed as inhibition of cell growth at 40 ug/ml by MTT assay
ZR-75-1 [16] = test: Anticancer activity against human ZR-75-1 cells assessed as inhibition of cell growth at 10 ug/ml by MTT assay
ZR-75-1 [17] = test: Anticancer activity against human ZR-75-1 cells assessed as inhibition of cell growth at 80 ug/ml by MTT assay
HeLa [18] = test: Anticancer activity against human HeLa cells assessed as inhibition of cell growth at 10 ug/ml by MTT assay
HeLa [19] = test: Anticancer activity against human HeLa cells assessed as inhibition of cell growth at 20 ug/ml by MTT assay
ZR-75-1 [20] = test: Anticancer activity against human ZR-75-1 cells assessed as inhibition of cell growth at 100ug/ml by MTT assay
HL-60 [21] = test: Anticancer activity against human HL60 cells assessed as inhibition of cell growth at 5 ug/ml by MTT assay
HeLa [22] = test: Anticancer activity against human HeLa cells assessed as inhibition of cell growth at 40 ug/ml by MTT assay
[23] = Anticancer activity against mouse P388D1 cells assessed as inhibition of cell growth at 20 ug/ml by MTT assay
HL-60 [24] = test: Anticancer activity against human HL60 cells assessed as inhibition of cell growth at 20 ug/ml by MTT assay
HL-60 [25] = test: Anticancer activity against human HL60 cells assessed as inhibition of cell growth at 10 ug/ml by MTT assay
COLO 205 [26] = test: Anticancer activity against human COLO205 cells assessed as inhibition of cell growth at 5 ug/ml by MTT assay
ZR-75-1 [27] = test: Anticancer activity against human ZR-75-1 cells assessed as inhibition of cell growth at 60 ug/ml by MTT assay
[28] = Anticancer activity against mouse P388D1 cells assessed as inhibition of cell growth at 100ug/ml by MTT assay
[29] = Anticancer activity against mouse P388D1 cells assessed as inhibition of cell growth at 10 ug/ml by MTT assay
ZR-75-1 [30] = test: Anticancer activity against human ZR-75-1 cells assessed as inhibition of cell growth at 40 ug/ml by MTT assay
HeLa [31] = test: Anticancer activity against human HeLa cells assessed as inhibition of cell growth at 60 ug/ml by MTT assay
COLO 205 [32] = test: Anticancer activity against human COLO205 cells assessed as inhibition of cell growth at 60 ug/ml by MTT assay
COLO 205 [33] = test: Anticancer activity against human COLO205 cells assessed as inhibition of cell growth at 80 ug/ml by MTT assay
ZR-75-1 [34] = test: Anticancer activity against human ZR-75-1 cells assessed as inhibition of cell growth at 20 ug/ml by MTT assay
COLO 205 [35] = test: Anticancer activity against human COLO205 cells assessed as inhibition of cell growth at 20 ug/ml by MTT assay

| Structure (SMILES) | inhibition at 40 µg/mL [1] | inhibition at 80 µg/mL (HeLa [2]) | inhibition at 80 µg/mL (HL-60 [3]) | inhibition at 60 µg/mL [4] | inhibition at 80 µg/mL [5] | inhibition at 5 µg/mL (HeLa [6]) | inhibition at 5 µg/mL [7] | inhibition at 100 µg/mL (HeLa [8]) | inhibition at 10 µg/mL (COLO 205 [9]) | inhibition at 100 µg/mL (COLO 205 [10]) | inhibition at 5 µg/mL (ZR-75-1 [11]) | inhibition at 40 µg/mL (COLO 205 [12]) | inhibition at 60 µg/mL (HL-60 [13]) | inhibition at 100 µg/mL (HL-60 [14]) | inhibition at 40 µg/mL (HL-60 [15]) | inhibition at 10 µg/mL (ZR-75-1 [16]) | inhibition at 80 µg/mL (ZR-75-1 [17]) | inhibition at 10 µg/mL (HeLa [18]) | inhibition at 5 µg/mL (HL-60 [21]) | inhibition at 5 µg/mL (COLO 205 [26]) | further results |
| --- | --- | --- | --- | --- | --- | --- | --- | --- | --- | --- | --- | --- | --- | --- | --- | --- | --- | --- | --- | --- | --- |
| O=C1O[C@@H](CCc2ccc(Br)cc2)C[C@H]1O | 34.6% | 62.5% | 47.7% | 40.1% | 40.7% | 52.3% | 10.5% | 69.1% | 26.2% | 75.8% | 20.9% | 40.9% | 32.6% | 52.9% | 39.4% | 33% | 38.3% | 52.5% | 20.6% | 23.1% | inhibition at 20 µg/mL (HeLa [19]): 54.4%; inhibition at 100 µg/mL (ZR-75-1 [20]): 42.3%; inhibition at 40 µg/mL (HeLa [22]): 57.5%; inhibition at 20 µg/mL [23]: 31.5%; inhibition at 20 µg/mL (HL-60 [24]): 24.5%; inhibition at 10 µg/mL (HL-60 [25]): 22.6%; inhibition at 60 µg/mL (ZR-75-1 [27]): 37%; inhibition at 100 µg/mL [28]: 52.5%; inhibition at 10 µg/mL [29]: 25.9%; inhibition at 40 µg/mL (ZR-75-1 [30]): 36.6%; inhibition at 60 µg/mL (HeLa [31]): 60.6%; inhibition at 60 µg/mL (COLO 205 [32]): 43.3%; inhibition at 80 µg/mL (COLO 205 [33]): 72.2%; inhibition at 20 µg/mL (ZR-75-1 [34]): 35.2%; inhibition at 20 µg/mL (COLO 205 [35]): 29.4% |
| O=C1O[C@@H](CCc2ccccc2)C[C@H]1O | 37.6% | 41% | 43.2% | 38.3% | 40% | 23.4% | 27.8% | 62.4% | 16.8% | 69.3% | 29.5% | 25.4% | 40% | 49% | 38.7% | 35.7% | 43.6% | 31.3% | 28.4% | 9.18% | inhibition at 20 µg/mL (HeLa [19]): 31.3%; inhibition at 100 µg/mL (ZR-75-1 [20]): 50.7%; inhibition at 40 µg/mL (HeLa [22]): 34%; inhibition at 20 µg/mL [23]: 35.2%; inhibition at 20 µg/mL (HL-60 [24]): 36.8%; inhibition at 10 µg/mL (HL-60 [25]): 31%; inhibition at 60 µg/mL (ZR-75-1 [27]): 37.9%; inhibition at 100 µg/mL [28]: 45.1%; inhibition at 10 µg/mL [29]: 31.5%; inhibition at 40 µg/mL (ZR-75-1 [30]): 37.4%; inhibition at 60 µg/mL (HeLa [31]): 39%; inhibition at 60 µg/mL (COLO 205 [32]): 36%; inhibition at 80 µg/mL (COLO 205 [33]): 65.3%; inhibition at 20 µg/mL (ZR-75-1 [34]): 36.1%; inhibition at 20 µg/mL (COLO 205 [35]): 22.8% |
| CO[C@@]12[C@H](COC(N)=O)C3=C(C(=O)C(C)=C(N)C3=O)N1C[C@@H]1N[C@@H]12 [MITOMYCIN] | – | – | – | – | – | 56.5% | 55.4% | – | – | – | 51.3% | – | – | – | – | – | – | – | 53.2% | 56.3% | – |
